# From PMC7180948, “New Insights into 4-Anilinoquinazolines as Inhibitors of Cardiac Troponin I–Interacting Kinase (TNNi3K)” (Molecules, 2020)
# Columns and labels:
# Experiment in all cases: biochemical
# Parameters in all cases: KINOMEscan competition binding panel (Eurofins DiscoverX), single concentration, percent inhibition
# Settings in all cases: read-out: 15 at 1 µM % inhibition
# ACVR1B = ACVR1B (Homo sapiens, UniProt P36896)
# Protocol: (§1) KinomeScan® Assay on 7 and 15 was performed as previously described by EuroFins DiscoverX [24]. GSK114 (7) and 15 were submitted for a KINOMEscan® assay to explore the selectivity profile across >400 human kinases at a compound concentration of 1 µM. […] GSK114 (7) is a narrow-spectrum TNNi3K inhibitor but has some potent off-targets including GAK which has been previously reported for this chemotype. […] If utilized together this set of compounds could be useful to investigate TNNi3K biology.
# CAMK2G = CAMK2G (Homo sapiens, UniProt Q13555)
# Protocol: as §1
# CDKL3 = CDKL3 (Homo sapiens, UniProt Q8IVW4)
# Protocol: as §1
# DAPK3 = DAPK3 (Homo sapiens, UniProt O43293)
# Protocol: as §1
# EPHA1 = EPHA1 (Homo sapiens, UniProt P21709)
# Protocol: as §1
# EPHB1 = EPHB1 (Homo sapiens, UniProt P54762)
# Chain of EPHB1 (P54762 whole entry): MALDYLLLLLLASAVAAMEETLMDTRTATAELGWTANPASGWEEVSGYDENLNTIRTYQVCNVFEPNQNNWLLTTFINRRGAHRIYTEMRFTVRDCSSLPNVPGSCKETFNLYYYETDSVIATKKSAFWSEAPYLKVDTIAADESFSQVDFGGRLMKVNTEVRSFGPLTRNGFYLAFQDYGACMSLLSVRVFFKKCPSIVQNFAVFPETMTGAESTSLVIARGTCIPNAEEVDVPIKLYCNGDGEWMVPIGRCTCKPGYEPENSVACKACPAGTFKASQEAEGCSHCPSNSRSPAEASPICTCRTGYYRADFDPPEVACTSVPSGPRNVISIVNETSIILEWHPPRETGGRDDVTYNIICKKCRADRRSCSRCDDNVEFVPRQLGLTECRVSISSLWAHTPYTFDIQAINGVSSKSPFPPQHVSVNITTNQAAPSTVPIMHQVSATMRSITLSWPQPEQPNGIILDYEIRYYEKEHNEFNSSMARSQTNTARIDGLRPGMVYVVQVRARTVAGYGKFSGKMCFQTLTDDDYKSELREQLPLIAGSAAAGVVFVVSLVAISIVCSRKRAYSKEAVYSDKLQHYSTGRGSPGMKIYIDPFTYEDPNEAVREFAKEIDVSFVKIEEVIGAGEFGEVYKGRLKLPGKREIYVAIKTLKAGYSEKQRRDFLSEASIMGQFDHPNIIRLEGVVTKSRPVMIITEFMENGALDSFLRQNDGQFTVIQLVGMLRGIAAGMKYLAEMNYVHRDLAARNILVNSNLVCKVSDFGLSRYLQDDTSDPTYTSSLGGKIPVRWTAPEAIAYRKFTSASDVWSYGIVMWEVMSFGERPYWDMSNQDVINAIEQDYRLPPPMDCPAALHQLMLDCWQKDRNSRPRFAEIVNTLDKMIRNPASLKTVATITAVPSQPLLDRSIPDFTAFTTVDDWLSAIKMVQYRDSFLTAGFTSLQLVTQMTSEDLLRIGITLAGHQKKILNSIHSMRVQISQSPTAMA
# Protocol: as §1
# EPHB2 = EPHB2 (Homo sapiens, UniProt P29323)
# Chain of EPHB2 (P29323 whole entry): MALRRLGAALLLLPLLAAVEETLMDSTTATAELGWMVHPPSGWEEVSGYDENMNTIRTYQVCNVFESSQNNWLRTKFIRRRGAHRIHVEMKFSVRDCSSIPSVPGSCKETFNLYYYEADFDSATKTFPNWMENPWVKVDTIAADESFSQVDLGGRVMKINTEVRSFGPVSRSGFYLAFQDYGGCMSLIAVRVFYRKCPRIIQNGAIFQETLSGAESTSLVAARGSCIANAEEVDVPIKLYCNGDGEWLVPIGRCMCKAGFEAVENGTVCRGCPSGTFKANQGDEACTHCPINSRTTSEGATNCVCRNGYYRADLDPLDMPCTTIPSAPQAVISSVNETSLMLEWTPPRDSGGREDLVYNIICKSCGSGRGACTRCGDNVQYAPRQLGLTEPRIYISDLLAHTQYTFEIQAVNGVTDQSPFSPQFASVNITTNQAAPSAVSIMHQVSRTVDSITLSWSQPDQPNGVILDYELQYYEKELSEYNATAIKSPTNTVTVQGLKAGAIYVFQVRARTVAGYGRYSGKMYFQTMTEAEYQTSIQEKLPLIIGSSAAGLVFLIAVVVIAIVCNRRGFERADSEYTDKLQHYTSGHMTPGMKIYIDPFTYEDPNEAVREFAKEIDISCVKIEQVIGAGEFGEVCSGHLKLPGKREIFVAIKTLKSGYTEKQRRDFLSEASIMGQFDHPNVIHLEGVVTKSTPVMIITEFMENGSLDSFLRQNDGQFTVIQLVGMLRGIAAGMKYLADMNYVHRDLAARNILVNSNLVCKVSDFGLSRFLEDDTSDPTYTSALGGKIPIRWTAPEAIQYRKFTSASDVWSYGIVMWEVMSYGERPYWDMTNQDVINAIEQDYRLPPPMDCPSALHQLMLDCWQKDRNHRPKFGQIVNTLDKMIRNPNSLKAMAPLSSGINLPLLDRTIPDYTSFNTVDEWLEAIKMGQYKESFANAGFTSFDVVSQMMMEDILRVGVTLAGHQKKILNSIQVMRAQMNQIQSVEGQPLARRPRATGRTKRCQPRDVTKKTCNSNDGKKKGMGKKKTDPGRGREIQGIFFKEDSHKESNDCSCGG
# Protocol: as §1
# ERBB2 = ERBB2 (Homo sapiens, UniProt P04626)
# Protocol: as §1
# ERK2 = target: T1, ERK2 (Homo sapiens, UniProt P28482)
# T1 construct: gene MAPK1
# Protocol: as §1
# GRK3 = GRK3 (Homo sapiens, UniProt P35626)
# Protocol: as §1
# JNK3 = target: T2, JNK3 (Homo sapiens, UniProt P53779)
# T2 construct: gene MAPK10
# T2 sequence (P53779 whole entry): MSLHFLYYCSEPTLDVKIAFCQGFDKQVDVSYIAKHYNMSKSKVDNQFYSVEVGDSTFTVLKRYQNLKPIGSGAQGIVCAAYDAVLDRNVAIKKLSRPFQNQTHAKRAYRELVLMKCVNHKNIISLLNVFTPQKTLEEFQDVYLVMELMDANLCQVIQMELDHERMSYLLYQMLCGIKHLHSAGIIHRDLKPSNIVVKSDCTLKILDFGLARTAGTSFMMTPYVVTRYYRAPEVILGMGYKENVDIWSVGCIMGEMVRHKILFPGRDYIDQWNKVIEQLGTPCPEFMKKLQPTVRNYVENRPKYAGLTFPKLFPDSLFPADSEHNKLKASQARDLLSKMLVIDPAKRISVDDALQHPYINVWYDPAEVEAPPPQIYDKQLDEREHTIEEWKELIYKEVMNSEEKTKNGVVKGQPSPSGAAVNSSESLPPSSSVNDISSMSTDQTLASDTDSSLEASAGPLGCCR
# Protocol: as §1
# LRRK2(G2019S) = LRRK2(G2019S) (Homo sapiens, UniProt Q5S007, G2019S)
# Protocol: as §1
# LYN = LYN (Homo sapiens, UniProt P07948)
# Protocol: as §1
# MEK4 = target: T3, MEK4 (Homo sapiens, UniProt P45985)
# T3 construct: gene MAP2K4
# Protocol: as §1
# MLCK = target: T4, MLCK (Homo sapiens, UniProt Q32MK0)
# T4 construct: gene MYLK3
# T4 sequence (Q32MK0 whole entry): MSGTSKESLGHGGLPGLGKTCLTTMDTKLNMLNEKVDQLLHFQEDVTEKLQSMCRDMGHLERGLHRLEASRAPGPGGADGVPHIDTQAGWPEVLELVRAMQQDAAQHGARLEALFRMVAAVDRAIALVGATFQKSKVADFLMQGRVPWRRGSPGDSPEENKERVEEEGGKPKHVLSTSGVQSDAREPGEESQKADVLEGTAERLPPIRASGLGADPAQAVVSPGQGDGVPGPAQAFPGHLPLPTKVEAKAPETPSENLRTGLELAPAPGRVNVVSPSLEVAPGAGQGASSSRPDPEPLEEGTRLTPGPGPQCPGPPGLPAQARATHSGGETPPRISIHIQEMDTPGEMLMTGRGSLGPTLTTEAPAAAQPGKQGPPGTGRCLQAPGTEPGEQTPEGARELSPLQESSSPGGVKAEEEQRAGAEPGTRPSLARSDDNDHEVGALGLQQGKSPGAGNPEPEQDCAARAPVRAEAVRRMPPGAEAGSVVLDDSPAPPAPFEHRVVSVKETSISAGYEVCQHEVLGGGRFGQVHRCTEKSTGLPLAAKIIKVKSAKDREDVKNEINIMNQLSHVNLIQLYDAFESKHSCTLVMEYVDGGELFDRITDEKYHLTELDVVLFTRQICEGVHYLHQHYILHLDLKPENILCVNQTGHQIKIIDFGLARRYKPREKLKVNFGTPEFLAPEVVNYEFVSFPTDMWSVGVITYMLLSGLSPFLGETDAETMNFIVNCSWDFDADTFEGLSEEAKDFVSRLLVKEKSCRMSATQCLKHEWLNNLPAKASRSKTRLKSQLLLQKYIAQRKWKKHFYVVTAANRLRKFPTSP
# Protocol: as §1
# MLK1 = target: T5, MLK1 (Homo sapiens, UniProt P80192)
# T5 construct: gene MAP3K9
# T5 sequence (P80192 whole entry): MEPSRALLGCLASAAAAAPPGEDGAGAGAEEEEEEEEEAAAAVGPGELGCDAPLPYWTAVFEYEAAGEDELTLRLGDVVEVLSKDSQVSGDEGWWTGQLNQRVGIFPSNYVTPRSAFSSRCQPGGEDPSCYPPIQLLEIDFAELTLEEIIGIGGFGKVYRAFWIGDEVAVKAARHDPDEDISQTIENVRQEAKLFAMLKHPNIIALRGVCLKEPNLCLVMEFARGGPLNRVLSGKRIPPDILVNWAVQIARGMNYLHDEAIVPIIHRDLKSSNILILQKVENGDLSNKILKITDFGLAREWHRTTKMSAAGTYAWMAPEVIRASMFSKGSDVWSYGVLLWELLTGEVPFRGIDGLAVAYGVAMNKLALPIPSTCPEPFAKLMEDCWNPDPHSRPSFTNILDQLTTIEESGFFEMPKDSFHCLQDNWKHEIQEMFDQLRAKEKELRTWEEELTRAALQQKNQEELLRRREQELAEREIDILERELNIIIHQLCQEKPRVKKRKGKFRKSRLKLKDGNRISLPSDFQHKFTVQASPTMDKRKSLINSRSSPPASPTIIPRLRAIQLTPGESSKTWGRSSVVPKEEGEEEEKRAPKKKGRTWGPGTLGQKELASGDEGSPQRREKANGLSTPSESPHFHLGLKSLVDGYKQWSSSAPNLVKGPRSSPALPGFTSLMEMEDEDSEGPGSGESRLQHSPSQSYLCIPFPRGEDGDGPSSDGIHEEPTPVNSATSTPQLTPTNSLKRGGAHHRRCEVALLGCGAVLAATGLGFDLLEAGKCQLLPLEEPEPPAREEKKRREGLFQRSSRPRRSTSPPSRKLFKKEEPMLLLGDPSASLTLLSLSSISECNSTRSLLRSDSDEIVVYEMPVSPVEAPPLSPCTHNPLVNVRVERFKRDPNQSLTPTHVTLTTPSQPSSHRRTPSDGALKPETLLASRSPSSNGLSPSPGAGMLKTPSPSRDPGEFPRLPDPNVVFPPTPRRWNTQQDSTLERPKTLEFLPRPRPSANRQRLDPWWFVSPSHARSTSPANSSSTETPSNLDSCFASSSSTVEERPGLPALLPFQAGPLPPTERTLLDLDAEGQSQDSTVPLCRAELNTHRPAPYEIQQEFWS
# Protocol: as §1
# OSR1 = target: T6, OSR1 (Homo sapiens, UniProt O95747)
# T6 construct: gene OXSR1
# Protocol: as §1
# PHKG2 = PHKG2 (Homo sapiens, UniProt P15735)
# Chain of PHKG2 (P15735 whole entry): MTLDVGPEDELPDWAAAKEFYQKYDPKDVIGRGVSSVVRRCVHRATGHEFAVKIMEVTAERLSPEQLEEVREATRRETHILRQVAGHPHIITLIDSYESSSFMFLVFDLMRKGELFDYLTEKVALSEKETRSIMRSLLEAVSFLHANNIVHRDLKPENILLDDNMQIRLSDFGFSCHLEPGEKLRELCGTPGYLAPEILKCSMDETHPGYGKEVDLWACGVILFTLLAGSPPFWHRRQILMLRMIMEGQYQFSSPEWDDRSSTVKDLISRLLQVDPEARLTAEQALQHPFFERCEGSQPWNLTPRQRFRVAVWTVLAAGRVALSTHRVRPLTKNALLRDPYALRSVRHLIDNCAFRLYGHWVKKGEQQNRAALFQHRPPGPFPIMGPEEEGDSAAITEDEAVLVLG
# Protocol: as §1
# PIP5K1A = PIP5K1A (Homo sapiens, UniProt Q99755)
# Protocol: as §1
# TIE2 = target: T7, TIE2 (Homo sapiens, UniProt Q02763)
# T7 construct: gene TEK
# Protocol: as §1
# TNIK = TNIK (Homo sapiens, UniProt Q9UKE5)
# Protocol: as §1
# TRKB = target: T8, TRKB (Homo sapiens, UniProt Q16620)
# T8 construct: gene NTRK2
# Protocol: as §1
# ULK1 = ULK1 (Homo sapiens, UniProt O75385)
# Protocol: as §1
# WNK4 = WNK4 (Homo sapiens, UniProt Q96J92)
# Protocol: as §1
smiles,measurement,setting,value
"CNS(=O)(=O)c1ccc(N(C)C)c(Nc2nc(C)nc3cc(OC)c(OC)cc23)c1 [compound 15, 3-((6,7-dimethoxy-2-methylquinazolin-4-yl)amino)-4-(dimethylamino)-N-methylbenzenesulfonamide]",inhibition at 1 µM,ACVR1B,0%
same,inhibition at 1 µM,CAMK2G,0%
same,inhibition at 1 µM,CDKL3,23%
same,inhibition at 1 µM,DAPK3,0%
same,inhibition at 1 µM,EPHA1,0%
same,inhibition at 1 µM,EPHB1,0%
same,inhibition at 1 µM,EPHB2,2%
same,inhibition at 1 µM,ERBB2,1%
same,inhibition at 1 µM,ERK2,0%
same,inhibition at 1 µM,GRK3,32%
same,inhibition at 1 µM,JNK3,0%
same,inhibition at 1 µM,LRRK2(G2019S),8%
same,inhibition at 1 µM,LYN,0%
same,inhibition at 1 µM,MEK4,25%
same,inhibition at 1 µM,MLCK,4%
same,inhibition at 1 µM,MLK1,0%
same,inhibition at 1 µM,OSR1,42%
same,inhibition at 1 µM,PHKG2,2%
same,inhibition at 1 µM,PIP5K1A,22%
same,inhibition at 1 µM,TIE2,6%
same,inhibition at 1 µM,TNIK,1%
same,inhibition at 1 µM,TRKB,22%
same,inhibition at 1 µM,ULK1,31%
same,inhibition at 1 µM,WNK4,0%
